Reference: patent US20100317621A1, “BETA-LACTAMASE INHIBITORS” (priority 2007, published 2010)
Converted amounts (≈) assume the structure as drawn.

Tested on: E. coli expressing the Class A ESBL CTX-M-15
Experiment: microbe, parasite or virus in culture
Type: cell-based
Conditions: Escherichia coli, read-out: MIC alone, E. coli CTX-M-15

Work on `CO/N=C(\C(=O)N[C@@H]1C(=O)N2C(C(=O)O)=C(COC(C)=O)CS[C@H]12)c1csc(N)n1` [cefotaxime] yielded an MIC of 1020 µg/mL (≈ 2250 µM).
